Assay: molar heat capacity at constant pressure
Conditions: 101.33 kPa

CCCO [propan-1-ol]
Conditions | molar heat capacity at constant pressure [J/K/mol]
5.01 K, Crystal | 0.17
5.41 K, Crystal | 0.22
6.14 K, Crystal | 0.29
6.36 K, Crystal | 0.35
7.33 K, Crystal | 0.52
7.72 K, Crystal | 0.61
8.72 K, Crystal | 0.9
8.94 K, Crystal | 0.94
10.13 K, Crystal | 1.44
10.33 K, Crystal | 1.49
11.74 K, Crystal | 2.19
11.83 K, Crystal | 2.23
13.48 K, Crystal | 3.15
13.5 K, Crystal | 3.19
15.36 K, Crystal | 4.38
15.38 K, Crystal | 4.4
17.37 K, Crystal | 5.81
17.42 K, Crystal | 5.83
19.52 K, Crystal | 7.46
19.6 K, Crystal | 7.53
21.78 K, Crystal | 9.32
21.9 K, Crystal | 9.44
24.15 K, Crystal | 11.43
24.29 K, Crystal | 11.57
26.63 K, Crystal | 13.58
26.79 K, Crystal | 13.71
29.24 K, Crystal | 15.59
29.43 K, Crystal | 15.75
32.1 K, Crystal | 18.09
34.44 K, Crystal | 20.16
36.72 K, Crystal | 21.88
39.11 K, Crystal | 23.5
41.56 K, Crystal | 25.36
44.03 K, Crystal | 27.19
46.52 K, Crystal | 28.98
49.05 K, Crystal | 30.75
51.61 K, Crystal | 32.44
54.2 K, Crystal | 34.01
56.81 K, Crystal | 35.59
59.46 K, Crystal | 37.12
62.13 K, Crystal | 38.64
64.82 K, Crystal | 40.12
67.54 K, Crystal | 41.54
70.28 K, Crystal | 42.95
73.03 K, Crystal | 44.31
75.8 K, Crystal | 45.65
78.58 K, Crystal | 46.95
81.38 K, Crystal | 48.22
84.17 K, Crystal | 49.46
86.9 K, Crystal | 50.65
89.55 K, Crystal | 51.79
92.15 K, Crystal | 52.87
94.68 K, Crystal | 53.91
97.15 K, Crystal | 54.9
98.26 K, Crystal | 55.24
99.58 K, Crystal | 55.88
101.41 K, Crystal | 56.44
104.32 K, Crystal | 57.81
107.19 K, Crystal | 59.01
110.07 K, Crystal | 60.14
112.95 K, Crystal | 61.2
115.84 K, Crystal | 62.28
118.73 K, Crystal | 63.39
121.63 K, Crystal | 64.43
124.53 K, Crystal | 65.69
127.43 K, Crystal | 66.87
130.34 K, Crystal | 68.07
133.25 K, Crystal | 69.29
136.16 K, Crystal | 70.53
139.06 K, Crystal | 71.9
141.97 K, Crystal | 73.6
144.84 K, Crystal | 79.58
153 K, Liquid | 106.26
155.75 K, Liquid | 106.33
158.49 K, Liquid | 106.55
161.22 K, Liquid | 106.79
163.93 K, Liquid | 107.01
166.64 K, Liquid | 107.32
169.34 K, Liquid | 107.61
172.03 K, Liquid | 107.88
174.71 K, Liquid | 108.22
177.37 K, Liquid | 108.49
180.03 K, Liquid | 108.81
182.68 K, Liquid | 109.05
185.32 K, Liquid | 109.37
187.95 K, Liquid | 109.64
190.57 K, Liquid | 109.94
193.19 K, Liquid | 110.41
195.79 K, Liquid | 110.64
198.38 K, Liquid | 110.93
200.97 K, Liquid | 111.4
203.35 K, Liquid | 111.76
205.56 K, Liquid | 112.13
208.15 K, Liquid | 112.54
211.11 K, Liquid | 113.05
214.08 K, Liquid | 113.58
217.04 K, Liquid | 114.16
219.99 K, Liquid | 114.78
222.92 K, Liquid | 115.39
225.84 K, Liquid | 116.05
228.74 K, Liquid | 116.74
231.64 K, Liquid | 117.43
234.52 K, Liquid | 118.2
237.38 K, Liquid | 118.92
240.23 K, Liquid | 119.7
243.07 K, Liquid | 120.56
245.89 K, Liquid | 121.39
248.7 K, Liquid | 122.27
251.5 K, Liquid | 123.2
254.28 K, Liquid | 123.87
257.05 K, Liquid | 124.8
259.81 K, Liquid | 125.83
262.55 K, Liquid | 126.88
265.28 K, Liquid | 127.98
267.99 K, Liquid | 129.08
270.68 K, Liquid | 130.22
273.36 K, Liquid | 131.39
276.02 K, Liquid | 132.62
278.67 K, Liquid | 133.86
281.3 K, Liquid | 135.13
283.91 K, Liquid | 136.42
286.51 K, Liquid | 137.76
289.09 K, Liquid | 139.17
291.66 K, Liquid | 140.59
294.2 K, Liquid | 141.98
296.74 K, Liquid | 143.51
299.25 K, Liquid | 144.96
301.34 K, Liquid | 146.08
303.15 K, Liquid | 147.29
305.04 K, Liquid | 148.45
306.99 K, Liquid | 149.78
308.94 K, Liquid | 151.07
310.9 K, Liquid | 152.24
312.85 K, Liquid | 153.55
314.81 K, Liquid | 155.12
316.76 K, Liquid | 156.37
318.71 K, Liquid | 157.72
320.67 K, Liquid | 159.16
322.62 K, Liquid | 160.63
324.58 K, Liquid | 162.08
326.53 K, Liquid | 163.47
328.49 K, Liquid | 165.03
330.44 K, Liquid | 166.52
332.4 K, Liquid | 168.01
334.35 K, Liquid | 169.52
336.31 K, Liquid | 171.04
338.26 K, Liquid | 172.66
340.22 K, Liquid | 174.2
342.17 K, Liquid | 175.61
344.13 K, Liquid | 177.2
346.1 K, Liquid | 178.27
348.07 K, Liquid | 180.29
350.04 K, Liquid | 181.83
